Type in all cases: ADME
One data set has as its target Sulfotransferase 1A3 (Homo sapiens, UniProt P0DMM9). As to the kind of experiment: Major substrate of human cytosolic sulfotransferase SULT1A3.
The target in another data set is T1, Cytochrome P450 2B6 (Homo sapiens, UniProt P20813).
T1 sequence (P20813 whole entry): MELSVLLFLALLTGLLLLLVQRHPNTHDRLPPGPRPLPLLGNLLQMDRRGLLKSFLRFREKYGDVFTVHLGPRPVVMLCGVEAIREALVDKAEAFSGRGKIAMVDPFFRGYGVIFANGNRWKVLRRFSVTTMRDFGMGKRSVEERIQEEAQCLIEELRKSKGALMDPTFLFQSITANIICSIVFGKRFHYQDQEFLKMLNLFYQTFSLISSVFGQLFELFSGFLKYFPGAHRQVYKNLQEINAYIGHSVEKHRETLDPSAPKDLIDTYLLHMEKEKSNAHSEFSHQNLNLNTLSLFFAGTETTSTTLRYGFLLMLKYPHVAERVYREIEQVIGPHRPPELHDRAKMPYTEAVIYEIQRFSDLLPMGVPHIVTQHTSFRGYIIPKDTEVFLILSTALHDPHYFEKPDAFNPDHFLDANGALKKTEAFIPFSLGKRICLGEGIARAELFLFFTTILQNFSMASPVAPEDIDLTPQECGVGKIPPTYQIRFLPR
The data set can be described thus: Clinically relevant substrates of human liver microsomal P450 enzymes, isoform CYP2B6. To be noted: microsomes. Background: Liver microsomes are a subcellular fraction often used to study metabolism.

Data set [1] concerns the target T2, UDP-glucuronosyltransferase 1A8 (Homo sapiens, UniProt Q9HAW9).
T2 sequence (Q9HAW9 whole entry): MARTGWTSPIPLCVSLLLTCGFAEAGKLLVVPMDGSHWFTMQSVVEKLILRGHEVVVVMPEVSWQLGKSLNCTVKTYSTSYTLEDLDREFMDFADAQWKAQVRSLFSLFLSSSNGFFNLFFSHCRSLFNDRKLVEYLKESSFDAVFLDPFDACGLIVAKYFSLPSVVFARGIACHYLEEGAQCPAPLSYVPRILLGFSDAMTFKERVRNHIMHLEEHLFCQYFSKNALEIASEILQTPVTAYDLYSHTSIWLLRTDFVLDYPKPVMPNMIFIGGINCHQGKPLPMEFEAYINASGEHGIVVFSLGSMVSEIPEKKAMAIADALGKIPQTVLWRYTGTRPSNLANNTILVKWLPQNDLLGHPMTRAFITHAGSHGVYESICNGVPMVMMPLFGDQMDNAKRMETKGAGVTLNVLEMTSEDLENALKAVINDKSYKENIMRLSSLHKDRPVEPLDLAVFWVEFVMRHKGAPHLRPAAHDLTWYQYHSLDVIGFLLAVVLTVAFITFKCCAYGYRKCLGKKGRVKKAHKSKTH
The data set can be described thus: Substrate of human UDP-glucuronosyltransferase UGT1A8.

The target of the next data set is Sulfotransferase 1A1 (Homo sapiens, UniProt P50225). As to the kind of experiment: Major substrate of human cytosolic sulfotransferase SULT1A1.
Sequence of Sulfotransferase 1A1 (P50225 whole entry): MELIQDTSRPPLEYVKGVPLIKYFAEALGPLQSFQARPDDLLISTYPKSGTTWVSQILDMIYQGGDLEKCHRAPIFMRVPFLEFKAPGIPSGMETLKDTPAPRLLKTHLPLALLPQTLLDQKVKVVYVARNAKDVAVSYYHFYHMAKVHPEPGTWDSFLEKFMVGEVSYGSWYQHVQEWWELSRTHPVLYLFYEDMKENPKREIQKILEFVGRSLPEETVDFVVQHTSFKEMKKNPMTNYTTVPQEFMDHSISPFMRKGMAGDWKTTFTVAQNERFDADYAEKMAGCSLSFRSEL
Data set [2] has as its target T3, UDP-glucuronosyltransferase 1A10 (Homo sapiens, UniProt Q9HAW8).
T3 sequence (Q9HAW8 whole entry): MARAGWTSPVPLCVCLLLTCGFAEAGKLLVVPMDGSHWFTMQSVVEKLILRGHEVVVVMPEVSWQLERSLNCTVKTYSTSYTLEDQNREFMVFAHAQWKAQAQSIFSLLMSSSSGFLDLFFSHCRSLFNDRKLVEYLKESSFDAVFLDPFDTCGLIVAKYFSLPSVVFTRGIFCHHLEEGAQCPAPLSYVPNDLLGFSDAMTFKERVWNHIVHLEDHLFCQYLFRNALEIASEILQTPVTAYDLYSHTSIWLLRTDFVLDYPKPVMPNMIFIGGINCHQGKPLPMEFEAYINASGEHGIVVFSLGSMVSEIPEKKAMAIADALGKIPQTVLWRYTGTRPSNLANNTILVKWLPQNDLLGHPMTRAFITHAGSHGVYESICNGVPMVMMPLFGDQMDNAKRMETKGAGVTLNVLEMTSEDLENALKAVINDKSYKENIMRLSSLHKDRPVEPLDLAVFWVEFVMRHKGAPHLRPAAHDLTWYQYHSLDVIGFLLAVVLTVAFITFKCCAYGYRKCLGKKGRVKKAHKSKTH
The data set can be described thus: Substrate of human UDP-glucuronosyltransferase UGT1A10.

Another data set has as its target T4, Cytochrome P450 2C8 (Homo sapiens, UniProt P10632).
T4 sequence (P10632 whole entry): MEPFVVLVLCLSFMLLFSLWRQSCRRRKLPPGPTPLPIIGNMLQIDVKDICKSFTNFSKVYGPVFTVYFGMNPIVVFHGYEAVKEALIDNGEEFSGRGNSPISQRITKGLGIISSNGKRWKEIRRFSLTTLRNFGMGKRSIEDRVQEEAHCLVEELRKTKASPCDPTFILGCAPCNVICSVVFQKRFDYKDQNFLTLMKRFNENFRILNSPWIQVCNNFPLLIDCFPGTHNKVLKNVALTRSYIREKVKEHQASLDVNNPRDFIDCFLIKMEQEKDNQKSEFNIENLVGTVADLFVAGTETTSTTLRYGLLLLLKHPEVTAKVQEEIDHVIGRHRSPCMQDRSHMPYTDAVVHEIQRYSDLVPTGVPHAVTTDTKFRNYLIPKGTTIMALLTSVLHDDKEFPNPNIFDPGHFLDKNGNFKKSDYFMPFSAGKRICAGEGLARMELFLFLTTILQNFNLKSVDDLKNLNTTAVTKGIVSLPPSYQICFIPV
As to the kind of experiment: Clinically relevant inhibitors of human liver microsomal P450 enzymes, isoform CYP2C8. The note with it: microsomes.

In the next data set the target is T5, Sulfotransferase 4A1 (Homo sapiens, UniProt Q9BR01).
T5 sequence (Q9BR01 whole entry): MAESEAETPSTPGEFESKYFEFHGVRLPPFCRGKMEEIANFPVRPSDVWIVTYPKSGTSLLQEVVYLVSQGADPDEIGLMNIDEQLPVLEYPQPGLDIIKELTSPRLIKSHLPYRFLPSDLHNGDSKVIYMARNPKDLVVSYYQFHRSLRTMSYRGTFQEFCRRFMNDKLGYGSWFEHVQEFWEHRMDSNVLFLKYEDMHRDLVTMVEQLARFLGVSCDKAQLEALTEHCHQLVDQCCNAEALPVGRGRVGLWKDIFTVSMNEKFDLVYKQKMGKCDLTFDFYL
As to the kind of experiment: Major substrate of human cytosolic sulfotransferase SULT4A1_v1.

The next data set deals with Sulfotransferase 1B1 (Homo sapiens, UniProt O43704). As to the kind of experiment: Major substrate of human cytosolic sulfotransferase SULT1B1.
Sequence of Sulfotransferase 1B1 (O43704 whole entry): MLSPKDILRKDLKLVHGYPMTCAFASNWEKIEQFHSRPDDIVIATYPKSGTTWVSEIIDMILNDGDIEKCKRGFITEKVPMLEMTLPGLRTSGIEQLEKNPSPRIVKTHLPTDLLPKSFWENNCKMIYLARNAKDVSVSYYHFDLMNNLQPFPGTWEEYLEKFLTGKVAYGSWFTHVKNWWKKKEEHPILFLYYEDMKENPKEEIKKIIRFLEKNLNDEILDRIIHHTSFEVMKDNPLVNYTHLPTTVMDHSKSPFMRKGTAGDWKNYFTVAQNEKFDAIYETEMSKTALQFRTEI
The target in the next data set is T6, Sulfotransferase 2A1 (Homo sapiens, UniProt Q06520).
T6 sequence (Q06520 whole entry): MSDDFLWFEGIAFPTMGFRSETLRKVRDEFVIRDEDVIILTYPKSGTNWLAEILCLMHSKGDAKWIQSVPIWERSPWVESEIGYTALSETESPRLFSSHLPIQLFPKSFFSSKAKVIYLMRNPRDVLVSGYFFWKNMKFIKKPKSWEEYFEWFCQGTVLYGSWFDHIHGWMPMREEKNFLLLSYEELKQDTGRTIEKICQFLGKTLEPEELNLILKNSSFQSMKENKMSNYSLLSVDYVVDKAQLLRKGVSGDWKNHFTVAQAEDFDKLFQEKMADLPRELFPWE
As to the kind of experiment: Major substrate of human cytosolic sulfotransferase SULT2A1.

For another data set, the target named is Sulfotransferase 1C4 (Homo sapiens, UniProt O75897). The data set can be described thus: Major substrate of human cytosolic sulfotransferase SULT1C4.
Sequence of Sulfotransferase 1C4 (O75897 whole entry): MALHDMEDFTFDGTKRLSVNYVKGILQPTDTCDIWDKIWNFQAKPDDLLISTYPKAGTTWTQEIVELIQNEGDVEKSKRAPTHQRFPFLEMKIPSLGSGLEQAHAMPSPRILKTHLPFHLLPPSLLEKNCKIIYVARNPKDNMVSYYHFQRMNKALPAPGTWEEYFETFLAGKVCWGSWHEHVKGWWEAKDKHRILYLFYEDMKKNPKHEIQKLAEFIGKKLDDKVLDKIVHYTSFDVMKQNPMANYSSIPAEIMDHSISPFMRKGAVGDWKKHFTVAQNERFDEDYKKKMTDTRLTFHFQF
For the next data set, the target named is T7, Sulfotransferase 1E1 (Homo sapiens, UniProt P49888).
T7 sequence (P49888 whole entry): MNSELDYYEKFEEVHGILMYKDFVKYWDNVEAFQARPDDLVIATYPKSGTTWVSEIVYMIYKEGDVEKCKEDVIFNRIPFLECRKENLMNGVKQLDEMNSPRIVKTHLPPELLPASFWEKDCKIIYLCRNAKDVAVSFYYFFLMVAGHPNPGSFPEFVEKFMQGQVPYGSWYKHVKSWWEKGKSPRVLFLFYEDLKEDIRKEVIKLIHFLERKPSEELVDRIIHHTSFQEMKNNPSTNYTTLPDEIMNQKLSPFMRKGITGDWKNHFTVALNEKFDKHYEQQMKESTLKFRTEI
The data set can be described thus: Major substrate of human cytosolic sulfotransferase SULT1E1.

For data set [3], the target named is T8, UDP-glucuronosyltransferase 1A1 (Homo sapiens, UniProt P22309).
T8 sequence (P22309 whole entry): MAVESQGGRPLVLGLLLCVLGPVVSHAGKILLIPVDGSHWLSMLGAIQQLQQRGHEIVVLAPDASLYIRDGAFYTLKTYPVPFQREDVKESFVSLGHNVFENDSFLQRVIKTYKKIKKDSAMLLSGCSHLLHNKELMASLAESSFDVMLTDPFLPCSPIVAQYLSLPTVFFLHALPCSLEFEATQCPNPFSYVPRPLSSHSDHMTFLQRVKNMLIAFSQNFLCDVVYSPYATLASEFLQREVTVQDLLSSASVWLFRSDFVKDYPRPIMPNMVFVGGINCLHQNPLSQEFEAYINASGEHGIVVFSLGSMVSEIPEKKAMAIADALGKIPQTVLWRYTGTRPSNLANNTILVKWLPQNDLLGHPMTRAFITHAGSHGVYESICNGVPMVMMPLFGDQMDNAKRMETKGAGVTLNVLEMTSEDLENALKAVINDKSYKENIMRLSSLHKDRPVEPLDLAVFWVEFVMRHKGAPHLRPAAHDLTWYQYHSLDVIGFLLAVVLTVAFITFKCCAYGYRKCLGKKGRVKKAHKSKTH
The data set can be described thus: Substrate of human UDP-glucuronosyltransferase UGT1A1.

In ChEMBL document CHEMBL1743201, “Casarett and Doull's Toxicology The Basic Science of Poisons, 7th edition” (2008) one finds Activity data, which are given here for 24 compounds.

Sequence of Sulfotransferase 1A3 (P0DMM9 whole entry): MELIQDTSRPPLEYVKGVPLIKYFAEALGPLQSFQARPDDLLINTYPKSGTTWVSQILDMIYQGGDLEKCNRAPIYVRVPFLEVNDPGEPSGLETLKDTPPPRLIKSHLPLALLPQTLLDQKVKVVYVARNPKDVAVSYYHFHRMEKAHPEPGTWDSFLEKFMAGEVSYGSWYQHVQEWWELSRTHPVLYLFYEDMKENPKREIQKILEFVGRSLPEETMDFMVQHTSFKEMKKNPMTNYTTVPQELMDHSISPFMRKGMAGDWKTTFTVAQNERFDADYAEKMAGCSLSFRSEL

For `CC(C)(C)NCC(O)c1ccc(O)c(CO)c1` (stereo not drawn) [ALBUTEROL], on Sulfotransferase 1A3, the Activity result was “Substrate”.
In the case of `O=P1(N(CCCl)CCCl)NCCCO1` (stereo not drawn) [CYCLOPHOSPHAMIDE ANHYDROUS], on Cytochrome P450 2B6, the Activity entry is given as “Substrate”.
The same measure, in the same setting: next, `CC[C@@]1(c2ccccc2)NC(=O)N(C)C1=O`: “Substrate”.
With `Cc1c(C)c2c(c(C)c1O)CCC(C)(COc1ccc(CC3SC(=O)NC3=O)cc1)O2` (stereo not drawn) [TROGLITAZONE], the Activity result (in [1]; on Sulfotransferase 1A1; in data set [2]) was “Substrate” in each case.
In the case of `CCOC(=O)C1(c2ccccc2)CCN(C)CC1` [MEPERIDINE], the Activity result on Cytochrome P450 2B6 was “Substrate”.
For `CC(CCc1ccc(O)cc1)NCCc1ccc(O)c(O)c1` (stereo not drawn) [DOBUTAMINE], the Activity result on Sulfotransferase 1A3 is reported as “Substrate”.
As for `CC(C)c1nc(N(C)S(C)(=O)=O)nc(-c2ccc(F)cc2)c1/C=C/[C@@H](O)C[C@@H](O)CC(=O)O` [ROSUVASTATIN], the Activity result on Cytochrome P450 2C8 is listed as “Inhibitor”.
As to `Cc1ccnc2c1NC(=O)c1cccnc1N2C1CC1` [NEVIRAPINE], the Activity entry on Cytochrome P450 2B6 is “Substrate”.
`CNC1(c2ccccc2Cl)CCCCC1=O` (stereo not drawn) [KETAMINE]: at Cytochrome P450 2B6, the Activity entry was “Substrate”.
Take `Nc1ccc2ccccc2c1` [NAPHTHYLAMINE]: on Sulfotransferase 4A1, the Activity result is on record as “Substrate”.
Take `O=C1Nc2ccc(Cl)cc2[C@@](C#CC2CC2)(C(F)(F)F)O1` [EFAVIRENZ]: the Activity result on Cytochrome P450 2B6 was “Substrate”.
As for `N[C@@H](Cc1cc(I)c(Oc2ccc(O)c(I)c2)c(I)c1)C(=O)O` [LIOTHYRONINE], the Activity entry on Sulfotransferase 1B1, at Sulfotransferase 1A1 and at Sulfotransferase 4A1 was “Substrate” in each case.
Regarding `CC(C)(O)c1ccccc1CC[C@@H](SCC1(CC(=O)O)CC1)c1cccc(/C=C/c2ccc3ccc(Cl)cc3n2)c1` [MONTELUKAST], the Activity result on Cytochrome P450 2C8 is “Inhibitor”.
On to `NCCc1ccc(O)c(O)c1` [DOPAMINE], for which the Activity result at Sulfotransferase 1B1, at Sulfotransferase 1A3 and at Sulfotransferase 1A1 was “Substrate” in each case.
In the case of `CCc1ccc(CCOc2ccc(CC3SC(=O)NC3=O)cc2)nc1` (stereo not drawn) [PIOGLITAZONE], the Activity entry on Cytochrome P450 2C8 was “Inhibitor”.
For `C[C@]12CC[C@@H]3c4ccc(O)cc4CC[C@H]3[C@@H]1CCC2=O` [ESTRONE], the Activity result at Sulfotransferase 2A1, on Sulfotransferase 1C4, on Sulfotransferase 1E1 and at Sulfotransferase 4A1 was “Substrate” in each case.
Take `Cc1ccc(C)c(OCCCC(C)(C)C(=O)O)c1` [GEMFIBROZIL]: at Cytochrome P450 2C8, the Activity entry is given as “Inhibitor”.
On to `N[C@@H](Cc1cc(I)c(Oc2cc(I)c(O)c(I)c2)c(I)c1)C(=O)O` [LEVOTHYROXINE], for which the Activity entry (at Sulfotransferase 1B1; in [3]; on Sulfotransferase 4A1) was “Substrate” throughout.
In the case of `CC#C[C@]1(O)CC[C@H]2[C@@H]3CCc4cc(O)ccc4[C@H]3CC[C@@]21C` [ESTROGEN], the Activity entry in data set [2] is on record as “Substrate”.
Regarding `OCc1ccc2ccc3cccc4ccc1c2c34`, the Activity entry at Sulfotransferase 1A3, on Sulfotransferase 2A1 and on Sulfotransferase 1C4 was “Substrate” throughout.
With `O=c1c(O)c(-c2ccc(O)c(O)c2)oc2cc(O)cc(O)c12` [QUERCETIN], the Activity result on Cytochrome P450 2C8 is reported as “Inhibitor”.
Take `NC(Cc1ccc(Oc2ccc(O)c(I)c2)c(I)c1)C(=O)O` (stereo not drawn) [DIIODOTHYRONINE]: the Activity entry at Sulfotransferase 1B1 and on Sulfotransferase 1A1 was “Substrate” in each case.
In the case of `N[C@@H](Cc1ccc(Oc2cc(I)c(O)c(I)c2)c(I)c1)C(=O)O` [REVERSE TRIIODOTHYRONINE], the Activity result at Sulfotransferase 1B1 is on record as “Substrate”.
For the compound `NC[C@H](O)c1ccc(O)c(O)c1` [NOREPINEPHRINE], the Activity result at Sulfotransferase 1A3 is listed as “Substrate”.
